{"source": "patent US10206399B2", "about": "“Herbicidal composition comprising uracil compound as active ingredient” (Dongbu Farm Hannong Co., Ltd., priority 2012, dated 2019)", "key": {"Abutilon theophrasti": {"tested_on": "Abutilon theophrasti", "experiment": "whole plant or invertebrate", "conditions": "for pest or weed control at 25 g/ha: read-out: Data (measured value) Abutilon theophrasti, 25 g/ha"}, "Aeschynomene indica": {"tested_on": "Aeschynomene indica", "experiment": "whole plant or invertebrate", "conditions": "for pest or weed control at 25 g/ha: read-out: Data (measured value) Aeschynomene indica, 25 g/ha"}, "Echinochloa crus": {"tested_on": "Echinochloa crus", "conditions": "for plant mortality, measured value: Echinochloa crus"}, "Digitaria sanguinalis": {"tested_on": "Digitaria sanguinalis", "conditions": "for plant mortality, measured value: Digitaria sanguinalis"}, "Xanthium spinosum": {"tested_on": "Xanthium spinosum", "experiment": "whole plant or invertebrate", "conditions": "for pest or weed control at 25 g/ha: read-out: Data (measured value) Xanthium spinosum, 25 g/ha"}, "[1]": {"conditions": "read-out: plant mortality, measured value, 375 g/ha"}, "[2]": {"conditions": "read-out: plant mortality, measured value, 750 g/ha"}, "[3]": {"conditions": "read-out: plant mortality, measured value, 1500 g/ha"}, "[4]": {"conditions": "read-out: plant mortality, measured value, 50 g/ha"}, "[5]": {"conditions": "read-out: plant mortality, measured value, 100 g/ha"}, "[6]": {"conditions": "read-out: plant mortality, measured value, 200 g/ha"}}, "note": "Like-named read-outs stand apart in the source and are kept apart here.", "data": [{"smiles": "Cc1cc(Cl)ccc1OC(C)C(=O)O", "note": "(stereo not drawn) [Mecoprop]", "values": [{"measurement": "pest or weed control at 200 g/ha", "setting": "Abutilon theophrasti; read-out: Data (measured value) Abutilon theophrasti, 200 g/ha", "value": 14, "unit": "%"}, {"measurement": "pest or weed control at 400 g/ha", "setting": "Abutilon theophrasti; read-out: Data (measured value) Abutilon theophrasti, 400 g/ha", "value": 29, "unit": "%"}, {"measurement": "pest or weed control at 800 g/ha", "setting": "Abutilon theophrasti; read-out: Data (measured value) Abutilon theophrasti, 800 g/ha", "value": 64, "unit": "%"}, {"measurement": "pest or weed control at 200 g/ha", "setting": "Aeschynomene indica; read-out: Data (measured value) Aeschynomene indica, 200 g/ha", "value": 8, "unit": "%"}, {"measurement": "pest or weed control at 400 g/ha", "setting": "Aeschynomene indica; read-out: Data (measured value) Aeschynomene indica, 400 g/ha", "value": 24, "unit": "%"}, {"measurement": "pest or weed control at 800 g/ha", "setting": "Aeschynomene indica; read-out: Data (measured value) Aeschynomene indica, 800 g/ha", "value": 55, "unit": "%"}, {"measurement": "Data (measured value) Echinochloa crus", "setting": "Echinochloa crus; 200 g/ha", "value": 0}, {"measurement": "Data (measured value) Echinochloa crus", "setting": "Echinochloa crus; 400 g/ha", "value": 0}, {"measurement": "Data (measured value) Echinochloa crus", "setting": "Echinochloa crus; 800 g/ha", "value": 0}, {"measurement": "Data (measured value) Digitaria sanguinalis", "setting": "Digitaria sanguinalis; 200 g/ha", "value": 0}, {"measurement": "Data (measured value) Digitaria sanguinalis", "setting": "Digitaria sanguinalis; 400 g/ha", "value": 0}, {"measurement": "Data (measured value) Digitaria sanguinalis", "setting": "Digitaria sanguinalis; 800 g/ha", "value": 0}, {"measurement": "pest or weed control at 200 g/ha", "setting": "Xanthium spinosum; read-out: Data (measured value) Xanthium spinosum, 200 g/ha", "value": 9, "unit": "%"}, {"measurement": "pest or weed control at 400 g/ha", "setting": "Xanthium spinosum; read-out: Data (measured value) Xanthium spinosum, 400 g/ha", "value": 19, "unit": "%"}, {"measurement": "pest or weed control at 800 g/ha", "setting": "Xanthium spinosum; read-out: Data (measured value) Xanthium spinosum, 800 g/ha", "value": 45, "unit": "%"}]}, {"smiles": "Nc1c(Cl)c(Cl)nc(C(=O)O)c1Cl", "note": "[Picloram]", "values": [{"measurement": "pest or weed control at 25 g/ha", "setting": "Abutilon theophrasti", "value": 9, "unit": "%"}, {"measurement": "pest or weed control at 50 g/ha", "setting": "Abutilon theophrasti; read-out: Data (measured value) Abutilon theophrasti, 50 g/ha", "value": 28, "unit": "%"}, {"measurement": "pest or weed control at 100 g/ha", "setting": "Abutilon theophrasti; read-out: Data (measured value) Abutilon theophrasti, 100 g/ha", "value": 65, "unit": "%"}, {"measurement": "pest or weed control at 25 g/ha", "setting": "Aeschynomene indica", "value": 9, "unit": "%"}, {"measurement": "pest or weed control at 50 g/ha", "setting": "Aeschynomene indica; read-out: Data (measured value) Aeschynomene indica, 50 g/ha", "value": 21, "unit": "%"}, {"measurement": "pest or weed control at 100 g/ha", "setting": "Aeschynomene indica; read-out: Data (measured value) Aeschynomene indica, 100 g/ha", "value": 52, "unit": "%"}, {"measurement": "Data (measured value) Echinochloa crus", "setting": "Echinochloa crus; 25 g/ha", "value": 0}, {"measurement": "Data (measured value) Echinochloa crus", "setting": "Echinochloa crus; 50 g/ha", "value": 0}, {"measurement": "Data (measured value) Echinochloa crus", "setting": "Echinochloa crus; 100 g/ha", "value": 0}, {"measurement": "Data (measured value) Digitaria sanguinalis", "setting": "Digitaria sanguinalis; 25 g/ha", "value": 0}, {"measurement": "Data (measured value) Digitaria sanguinalis", "setting": "Digitaria sanguinalis; 50 g/ha", "value": 0}, {"measurement": "Data (measured value) Digitaria sanguinalis", "setting": "Digitaria sanguinalis; 100 g/ha", "value": 0}, {"measurement": "pest or weed control at 25 g/ha", "setting": "Xanthium spinosum", "value": 9, "unit": "%"}, {"measurement": "pest or weed control at 50 g/ha", "setting": "Xanthium spinosum; read-out: Data (measured value) Xanthium spinosum, 50 g/ha", "value": 26, "unit": "%"}, {"measurement": "pest or weed control at 100 g/ha", "setting": "Xanthium spinosum; read-out: Data (measured value) Xanthium spinosum, 100 g/ha", "value": 56, "unit": "%"}]}, {"smiles": "CCc1cc(C)cc(CC)c1-c1c(OC(=O)C(C)(C)C)n2n(c1=O)CCOCC2", "note": "[Pinoxaden]", "values": [{"measurement": "pest or weed control at 6.25 g/ha", "setting": "Abutilon theophrasti; read-out: Data (measured value) Abutilon theophrasti, 6.25 g/ha", "value": 0, "unit": "%"}, {"measurement": "pest or weed control at 12.5 g/ha", "setting": "Abutilon theophrasti; read-out: Data (measured value) Abutilon theophrasti, 12.5 g/ha", "value": 0, "unit": "%"}, {"measurement": "pest or weed control at 25 g/ha", "setting": "Abutilon theophrasti", "value": 0, "unit": "%"}, {"measurement": "pest or weed control at 6.25 g/ha", "setting": "Aeschynomene indica; read-out: Data (measured value) Aeschynomene indica, 6.25 g/ha", "value": 0, "unit": "%"}, {"measurement": "pest or weed control at 12.5 g/ha", "setting": "Aeschynomene indica; read-out: Data (measured value) Aeschynomene indica, 12.5 g/ha", "value": 0, "unit": "%"}, {"measurement": "pest or weed control at 25 g/ha", "setting": "Aeschynomene indica", "value": 0, "unit": "%"}, {"measurement": "Data (measured value) Echinochloa crus", "setting": "Echinochloa crus; 6.25 g/ha", "value": 10}, {"measurement": "Data (measured value) Echinochloa crus", "setting": "Echinochloa crus; 12.5 g/ha", "value": 29}, {"measurement": "Data (measured value) Echinochloa crus", "setting": "Echinochloa crus; 25 g/ha", "value": 63}, {"measurement": "Data (measured value) Digitaria sanguinalis", "setting": "Digitaria sanguinalis; 6.25 g/ha", "value": 12}, {"measurement": "Data (measured value) Digitaria sanguinalis", "setting": "Digitaria sanguinalis; 12.5 g/ha", "value": 26}, {"measurement": "Data (measured value) Digitaria sanguinalis", "setting": "Digitaria sanguinalis; 25 g/ha", "value": 57}, {"measurement": "pest or weed control at 6.25 g/ha", "setting": "Xanthium spinosum; read-out: Data (measured value) Xanthium spinosum, 6.25 g/ha", "value": 0, "unit": "%"}, {"measurement": "pest or weed control at 12.5 g/ha", "setting": "Xanthium spinosum; read-out: Data (measured value) Xanthium spinosum, 12.5 g/ha", "value": 0, "unit": "%"}, {"measurement": "pest or weed control at 25 g/ha", "setting": "Xanthium spinosum", "value": 0, "unit": "%"}]}, {"smiles": "CCC(=O)Nc1ccc(Cl)c(Cl)c1", "note": "[Propanil]", "values": [{"measurement": "pest or weed control at 375 g/ha", "setting": "Abutilon theophrasti; [1]", "value": 10, "unit": "%"}, {"measurement": "pest or weed control at 750 g/ha", "setting": "Abutilon theophrasti; [2]", "value": 23, "unit": "%"}, {"measurement": "pest or weed control at 1500 g/ha", "setting": "Abutilon theophrasti; [3]", "value": 56, "unit": "%"}, {"measurement": "pest or weed control at 375 g/ha", "setting": "Aeschynomene indica; [1]", "value": 10, "unit": "%"}, {"measurement": "pest or weed control at 750 g/ha", "setting": "Aeschynomene indica; [2]", "value": 27, "unit": "%"}, {"measurement": "pest or weed control at 1500 g/ha", "setting": "Aeschynomene indica; [3]", "value": 56, "unit": "%"}, {"measurement": "plant mortality, measured value", "setting": "Echinochloa crus; 375 g/ha", "value": 11}, {"measurement": "plant mortality, measured value", "setting": "Echinochloa crus; 750 g/ha", "value": 21}, {"measurement": "plant mortality, measured value", "setting": "Echinochloa crus; 1500 g/ha", "value": 46}, {"measurement": "plant mortality, measured value", "setting": "Digitaria sanguinalis; 375 g/ha", "value": 7}, {"measurement": "plant mortality, measured value", "setting": "Digitaria sanguinalis; 750 g/ha", "value": 22}, {"measurement": "plant mortality, measured value", "setting": "Digitaria sanguinalis; 1500 g/ha", "value": 45}, {"measurement": "pest or weed control at 375 g/ha", "setting": "Xanthium spinosum; [1]", "value": 10, "unit": "%"}, {"measurement": "pest or weed control at 750 g/ha", "setting": "Xanthium spinosum; [2]", "value": 24, "unit": "%"}, {"measurement": "pest or weed control at 1500 g/ha", "setting": "Xanthium spinosum; [3]", "value": 58, "unit": "%"}]}, {"smiles": "O=C(O)c1c(Cl)ccc2cc(Cl)cnc12", "note": "[Quinclorac]", "values": [{"measurement": "pest or weed control at 50 g/ha", "setting": "Abutilon theophrasti; [4]", "value": 9, "unit": "%"}, {"measurement": "pest or weed control at 100 g/ha", "setting": "Abutilon theophrasti; [5]", "value": 26, "unit": "%"}, {"measurement": "pest or weed control at 200 g/ha", "setting": "Abutilon theophrasti; [6]", "value": 57, "unit": "%"}, {"measurement": "pest or weed control at 50 g/ha", "setting": "Aeschynomene indica; [4]", "value": 10, "unit": "%"}, {"measurement": "pest or weed control at 100 g/ha", "setting": "Aeschynomene indica; [5]", "value": 27, "unit": "%"}, {"measurement": "pest or weed control at 200 g/ha", "setting": "Aeschynomene indica; [6]", "value": 57, "unit": "%"}, {"measurement": "plant mortality, measured value", "setting": "Echinochloa crus; 50 g/ha", "value": 13}, {"measurement": "plant mortality, measured value", "setting": "Echinochloa crus; 100 g/ha", "value": 26}, {"measurement": "plant mortality, measured value", "setting": "Echinochloa crus; 200 g/ha", "value": 55}, {"measurement": "plant mortality, measured value", "setting": "Digitaria sanguinalis; 50 g/ha", "value": 6}, {"measurement": "plant mortality, measured value", "setting": "Digitaria sanguinalis; 100 g/ha", "value": 21}, {"measurement": "plant mortality, measured value", "setting": "Digitaria sanguinalis; 200 g/ha", "value": 49}, {"measurement": "pest or weed control at 50 g/ha", "setting": "Xanthium spinosum; [4]", "value": 11, "unit": "%"}, {"measurement": "pest or weed control at 100 g/ha", "setting": "Xanthium spinosum; [5]", "value": 29, "unit": "%"}, {"measurement": "pest or weed control at 200 g/ha", "setting": "Xanthium spinosum; [6]", "value": 62, "unit": "%"}]}]}
